Results as given in US8039481B2, “Tetrahydrofuran derivatives for use as inhibitors of matrix metalloproteinases” (Sanofi-Aventis, priority 2005, dated 2011).

Assays:
Assay type in all cases: biochemical
[1] = molecular target: T1, catalytic domain of human collagenase-1 (MMP-1) (Homo sapiens, UniProt P03956); experiment: Enzymatic activity of the catalytic domain of human collagenase-1 (MMP-1), fluorogenic substrate
T1 construct: Determination of the Enzymatic Activity of the Catalytic Domain of Human Collagenase-1 (MMP-1); purchased Biocol, Potsdam MMP1
T1 sequence (P03956 100-269 limits assumed): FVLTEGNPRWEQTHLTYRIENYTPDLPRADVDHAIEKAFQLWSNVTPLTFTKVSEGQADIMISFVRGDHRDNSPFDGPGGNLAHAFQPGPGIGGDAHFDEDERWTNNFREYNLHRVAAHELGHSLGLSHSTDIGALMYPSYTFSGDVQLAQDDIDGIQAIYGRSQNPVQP
Method: Determination of the Enzymatic Activity of the Catalytic Domain of Human Collagenase-1 (MMP-1)
Activation of the proenzyme: 2 parts by volume of proenzyme are incubated with 1 part by volume of APMA solution at 37° C. for 1 hour. The APMA solution is prepared from a 10 mmol/l p-aminophenylmercuric acetate solution in 0.1 mmol/l NaOH by dilution with 3 parts by volume of tris/HCl buffer pH7.5 (see below). The pH is adjusted to between 7.0 and 7.5 by adding 1 mmol/l HCl. After activation of the enzyme, it is diluted with the tris/HCl buffer to a concentration of 2.5 μg/ml.
(§1) The enzymic activity is measured by incubating 10 μl of enzyme solution with 10 μl of a 3% strength (v/v) buffered dimethyl sulfoxide solution (reaction 1) for 15 minutes. The enzyme inhibitor activity is measured by incubating 10 μl of enzyme solution with 10 μl of a 3% strength (v/v) buffered dimethyl sulfoxide solution which contains the enzyme inhibitor (reaction 2).
The enzymic reaction both in the case of reaction 1 and in the case of reaction 2 is followed after addition of 10 μl of a 3% strength (v/v) aqueous dimethyl sulfoxide solution which contains 0.3 mmol/l of the substrate by fluorescence spectroscopy (328 nm (extinction)/393 nm (emission)), and the enzymic activity is presented as increase in extinction per minute.
The effect of the inhibitor is calculated as percentage inhibition by the following formula: % inhibition=100−[(increase in extinction/minute in reaction 2)/(increase in extinction/minute in reaction 1)×100].
The IC50, i.e. the inhibitor concentration necessary for 50% inhibition of the enzymic activity, is determined graphically by plotting the percentage inhibitions at various inhibitor concentrations.
The buffer solution contains 0.05% Brij (Sigma, Deisenhofen, Germany) and 0.1 mol/l tris/HCl, 0.1 mol/l NaCl, 0.01 mol/l CaCl2 (pH=7.5). The enzyme solution contains 2.5 μg/ml of the enzyme domain.
The substrate solution contains 0.3 mmol/l of the fluorogenic substrate (7-methoxycoumarin-4-yl)acetyl-Pro-Leu-Gly-Leu-3-(2′,4′-dinitrophenyl)-L-2,3-diaminopropionyl-Ala-Arg-NH2 (Bachem, Heidelberg, Germany).

[2] = molecular target: T2, catalytic domain of neutrophil collagenase (MMP-8) (Homo sapiens, UniProt P22894); experiment: Enzymatic activity of the catalytic domain of neutrophil collagenase (MMP-8), fluorogenic substrate
T2 construct: catalytic domain of human stromelysin (MMP-3) and of neutrophil collagenase (MMP-8); made in house
T2 sequence (P22894 100-262 limits assumed): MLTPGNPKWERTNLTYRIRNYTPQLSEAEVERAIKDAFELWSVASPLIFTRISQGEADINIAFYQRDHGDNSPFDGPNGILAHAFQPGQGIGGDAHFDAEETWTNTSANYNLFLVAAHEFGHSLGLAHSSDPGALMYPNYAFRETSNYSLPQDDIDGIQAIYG
Method: Preparation and determination of the enzymatic activity of the catalytic domain of human stromelysin (MMP-3) and of neutrophil collagenase (MMP-8). The two enzymes stromelysin (MMP-3) and neutrophil collagenase (MMP-8) were prepared by the method of Ye et al. (Biochemistry; 31 (1992) pages 11 231-11 235). The enzymic activity or the effect of the enzyme inhibitor was measured by incubating 10 μl of enzyme solution with 10 μl of a 3% strength (v/v) buffered dimethyl sulfoxide solution which contained the enzyme inhibitor where appropriate, for 15 minutes. After addition of 10 μl of a 3% strength (v/v) aqueous dimethyl sulfoxide solution which contained 1 mmol/l of the substrate, the enzymic reaction was followed by fluorescence spectroscopy (328 nm (ex)/393 nm(em)).
The enzymic activity is presented as increase in extinction/minute. The IC50 values listed in Table 2 were determined as the inhibitor concentrations leading in each case to 50% inhibition of the enzyme.
The buffer solution contained 0.05% Brij (Sigma, Deisenhofen, Germany) and 0.1 mol/l Tris/HCl, 0.1 mol/l NaCl, 0.01 mol/l CaCl2 and 0.1 mol/l piperazine-N,N′-bis[2-ethanesulfonic acid] (pH=7.5).
The MMP-3 enzyme solution contained 2.3 μg/ml and the MMP-8 enzyme solution 0.6 μg/ml of one of the enzyme domains prepared by the method of Ye et al. The substrate solution contained 1 mmol/l of the fluorogenic substrate (7-methoxycoumarin-4-yl)acetyl-Pro-Leu-Gly-Leu-3-(2′,4′-dinitrophenyl)-L-2,3-diaminopropionyl-Ala-Arg-NH2 (Bachem, Heidelberg, Germany).

[3] = molecular target: T3, catalytic domain of human collagenase-3 (MMP-13) (Homo sapiens, UniProt P45452); experiment: Enzymatic activity of the catalytic domain of human collagenase-3 (MMP-13), fluorogenic substrate
T3 construct: Determination of the Enzymatic Activity of the Catalytic Domain of Human Collagenase-3 (MMP-13); purchased INVITEK, Berlin 30 100 803
Method: Determination of the Enzymatic Activity of the Catalytic Domain of Human Collagenase-3 (MMP-13)
Activation of the proenzyme: 2 parts by volume of proenzyme were incubated with 1 part by volume of APMA solution at 37° C. for 1.5 hours. The APMA solution was prepared from a 10 mmol/l p-aminophenylmercuric acetate solution in 0.1 mmol/l NaOH by dilution with 3 parts by volume of Tris/HCl buffer pH 7.5 (see below). The pH was adjusted to between 7.0 and 7.5 by adding 1 mmol/l HCl. After activation of the enzyme it was diluted with the Tris/HCl buffer to a concentration of 1.67 μg/ml.
as §1, with “was” for “is”, “contained” for “contains”
The enzymic reaction both in the case of reaction 1 and in the case of reaction 2 was followed after addition of 10 μl of a 3% strength (v/v) aqueous dimethyl sulfoxide solution which contained 0.075 mmol/l of the substrate by fluorescence spectroscopy (328 nm (extinction)/393 nm (emission)).
The enzymic activity has been presented as increase in extinction/minute. The effect of the inhibitor was calculated as percentage inhibition by the following formula: % inhibition=100−[(increase in extinction/minute in reaction 2)/(increase in extinction/minute in reaction 1)×100].
The IC50, which is the concentration of inhibitor which is necessary for 50% inhibition of the enzymic activity, was determined graphically by plotting the percentage inhibitions at various inhibitor concentrations.
The buffer solution contained 0.05% Brij (Sigma, Deisenhofen, Germany) and 0.1 mol/l Tris/HCl, 0.1 mol/l NaCl, 0.01 mol/l CaCl2 (pH=7.5). The enzyme solution contained 1.67 μg/ml of the enzyme domain. The substrate solution contained 0.075 mmol/l of the fluorogenic substrate (7-methoxycoumarin-4-yl)acetyl-Pro-Leu-Gly-Leu-3-(2′,4′-dinitrophenyl)-L-2,3-diaminopropionyl-Ala-Arg-NH2 (Bachem, Heidelberg, Germany).

| SMILES | IC50 [1] | IC50 [2] | IC50 [3] |
| --- | --- | --- | --- |
| O=C(O)C1C2CCOC2CCN1S(=O)(=O)c1ccc(-c2ccc(Cl)cc2)cc1 (stereo not drawn) [Example 6, 5-(4′-chlorobiphenyl-4-sulfonyl)octahydrofuro[3,2-c]pyridine-4-carboxylic acid] | > 10000 nM | 54 nM | 290 nM |
| O=C(NO)C1C2CCOC2CCN1S(=O)(=O)c1ccc(-c2ccc(Cl)cc2)cc1 (stereo not drawn) [Example 7, 5-(4′-chlorobiphenyl-4-sulfonyl)octahydrofuro[3,2-c]pyridine-4-(N-hydroxy)-carboxamide] | 29 nM | 2.4 nM | 1.8 nM |
| O=C(NO)[C@H]1[C@H]2CCO[C@H]2CCN1S(=O)(=O)c1ccc(-c2ccc(Cl)cc2)cc1 [Example 8] | 14 nM | 1 nM | 1 nM |
| O=C(NO)[C@@H]1[C@@H]2CCO[C@@H]2CCN1S(=O)(=O)c1ccc(-c2ccc(Cl)cc2)cc1 [Example 9] | 4100 nM | 170 nM | 58 nM |
| O=C(O)C1C2CCOC2CCN1S(=O)(=O)c1ccc(Oc2ccc(F)cc2)cc1 (stereo not drawn) [Example 10, 5-[4-(4-fluorophenoxy)benzenesulfonyl]octahydrofuro[3,2-c]pyridine-4-carboxylic acid] | > 10000 nM | 410 nM | 520 nM |
| O=C(NO)C1C2CCOC2CCN1S(=O)(=O)c1ccc(Oc2ccc(F)cc2)cc1 (stereo not drawn) [Example 11, 5-[4-(4-fluorophenoxy)benzenesulfonyl]octahydrofuro[3,2-c]pyridine-4-(N-hydroxy)-carboxamide] | 39 nM | 6 nM | 2 nM |
| O=C(NO)[C@H]1[C@H]2CCO[C@H]2CCN1S(=O)(=O)c1ccc(Oc2ccc(F)cc2)cc1 [Example 12] | 10 nM | 2 nM | 0.7 nM |
| O=C(NO)[C@@H]1[C@@H]2CCO[C@@H]2CCN1S(=O)(=O)c1ccc(Oc2ccc(F)cc2)cc1 [Example 13] | 1400 nM | 150 nM | 63 nM |
| O=C(NO)C1C2CCOC2CCN1S(=O)(=O)c1ccc(Oc2ccc(Cl)cc2)cc1 (stereo not drawn) [Example 18, 5-[4-(4-chlorophenoxy)benzenesulfonyl]octahydrofuro[3,2-c]pyridine-4-(N-hydroxy)-carboxamide] | 43 nM | 24 nM | 1 nM |
| N#Cc1ccc(Oc2ccc(S(=O)(=O)N3CC[C@@H]4OCC[C@@H]4[C@@H]3C(=O)NO)cc2)cc1 [Example 21] | 59 nM | 2 nM | 1 nM |
| CS(=O)(=O)c1ccc(Oc2ccc(S(=O)(=O)N3CC[C@@H]4OCC[C@@H]4[C@@H]3C(=O)NO)cc2)cc1 [Example 23] | 640 nM | 2 nM | 1 nM |
